How the values were obtained:
[1] = test system: hESC-derived NK cells; assay: CD107a degranulation assay with K562 target cells; assay type: cell-based, human; details: Day 11+28, K562 targets at 2:1 effector:target ratio, 4 hours
[2] = test system: H9 hESCs; assay: Hemato-endothelial differentiation of H9 hESCs as spin-EBs, flow cytometry (Example 1); assay type: cell-based, human
Experimental: H9 human embryonic stem cells (H9 hESCs; University of Wisconsin, Madison, Wis.) were adapted to passage as single cells using TrypLE (Invitrogen, Carlsbad, Calif.) as previously described (Ng et al. Nat. Protoc. 3, 768-76 (2008)). H9 hESCs were maintained on irradiated mouse embryonic fibroblasts in ES cell growth medium including Dulbecco's modified Eagle's medium (DMEM)/Ham's F-12 medium (F12) (Invitrogen) supplemented with 15% Knockout Serum Replacer (Invitrogen), 1 mM L-glutamine (Invitrogen), 0.1 mM β-mercaptoethanol (Sigma Aldrich, St. Louis, Mo.), 1% minimum essential medium nonessential amino acids (Invitrogen), 4 ng/mL basic fibroblast growth factor (R&D Systems Inc., Minneapolis, Minn.), and 1% penicillin-streptomycin (Invitrogen) incubated at 37° C. in a humidified atmosphere containing 5% CO2. Single-cell adapted hESCs were subjected to hemato-endothelial differentiation as spin embryoid bodies (“spin-EBs”), also previously described (Ng et al. Nat. Protoc. 3, 768-76 (2008); Knorr et al. Stem Cells Dev. 22, 1861-9 (2013); Ferrell et al., Stem Cells 33(4), 1130-41 (2015)). In brief, TrypLE-adapted hESCs were harvested are resuspended in bovine serum albumin polyvinyl alcohol essential lipids (BPEL) media (Ferrell et al. Stem Cells 33(4):1130-41 (2015)) supplemented with 20 ng/mL bone morphogenic protein-4 (R&D Systems), 20 ng/mL vascular endothelial growth factor (R&D Systems), and 40 ng/mL stem cell factor (R&D Systems) (hemato-endothelial induction media or Stage I mesodermal induction media). Cells were plated in a low-attachment 96-well plate (Thermo Scientific, Waltham, Mass.) at 3,000 cells per well and centrifuged at 1500 rpm for 5 minutes to create three-dimensionalized embryoid body aggregates. Following 6 days of incubation, EBs were transferred with a multichannel micropipette to 0.1% gelatinized 24-well plates (8 EBs/well) with BEL media (BPEL media minus polyvinyl alcohol) supplemented with 40 ng/mL vascular endothelial growth factor, 40 ng/mL stem cell factor, 30 ng/mL Interleukin-3 (Peprotech, Rocky Hill, N.J.), 30 ng/mL Interleukin-6 (Peprotech), and 30 ng/mL thrombopoietin (Peprotech) ([…] or Stage II media) to induce hemato-endothelial-specific differentiation. Depending on the treatment group, Stage II media was also supplemented with DMSO, 1 μM StemReginin-1 (SR-1) (Cellagen Technology, San Diego, Calif.) in DMSO or 10 nM 2,3,7,8-tetrachlorodibenzo-p-dioxin (TCDD) (Sigma Aldrich) in DMSO. EBs were cultured until the indicated time points and one-half media changes with fresh Stage II media and drugs were performed every three days. For EB harvesting, the media containing the non-adherent differentiated hematopoietic cells was set aside while the adherent cells were treated with 0.05% trypsin (Invitrogen) containing 2% chicken serum (Sigma Aldrich) for 8-10 minutes in a 37° C. water bath. Both non-adherent and adherent fractions were combined for subsequent analyses.
Harvested cells were incubated with PE-Cy7 CD34 (BD Biosciences, San Jose, Calif.) in conjunction with APC CD31, APC CD41a, APC CD43, or APC CD45 for 30 minutes at 4° C. in FACS buffer (DPBS containing 2% fetal bovine serum and 0.1% sodium azide). Dead cells were excluded using Sytox Blue dye (Invitrogen) prior to analysis. Cells were analyzed using an LSRII flow cytometer (BD Biosciences) and data were analyzed using FlowJo software (TreeStart, Ashland, Oreg.).

Compound	CD107a expression (percentage of CD107a+ cells) [1]	CD34+CD31+ hemato-endothelial cells ([2]; Day 9, 1 μM SR-1, n=3)	expansion of CD34+CD45+ hematopoietic progenitor cells relative to DMSO-treated controls ([2]; Day 12, 1 μM SR-1)	CD34+CD45+ hematopoietic progenitor cells ([2]; Day 12, 1 μM SR-1, n=3)	CD34+CD45+ progenitor cells ([2]; Day 15, 10 nM TCDD, n=3)	CD34−CD43+ differentiated hematopoietic cells ([2]; Day 15, 10 nM TCDD, n=3)	CD34−CD45+ differentiated hematopoietic cells ([2]; Day 15, 10 nM TCDD, n=3)
CC(C)n1cnc2c(NCCc3ccc(O)cc3)nc(-c3csc4ccccc34)nc21 [SR-1, StemReginin-1]	58.1±0.67%	17.63%±1.25	approximately two-fold expansion	16.35%±4.05			
Clc1cc2c(cc1Cl)Oc1cc(Cl)c(Cl)cc1O2 [TCDD, 2,3,7,8-tetrachlorodibenzo-p-dioxin]	36.8±2.1%				3.99%±0.80	84.5%±2.78	81.75%±1.75
